Patent US20210008075A1, “PEDIATRIC DOSING FOR TREATMENT OF CANCER WITH AN EZH2 INHIBITOR” (Epizyme, Inc., priority 2015, published 2021)
Entries after “also recorded” stand apart in the source; their conditions may differ. Like-named read-outs stand apart in the source and are kept apart here. Each block holds one compound with its values, some of them ahead of it.

Columns and labels:
[1] = test system: LNCAP prostate cancer cells; assay: LNCAP cell growth inhibition in vitro; assay type: cell-based
[2] = test system: G401 SNF mutant cell line; assay: Soft agar growth, 7 days; assay type: cell-based; conditions: after 7 days
Excerpt: FIGS. 3A-3D are a series of bar graphs showing that G401 SNF mutant cell line is responding to Compound D after 7 days in soft agar compared to wild type cells RD.

[3] = test system: ATRX mutant SCLC lines NCI-H446, SW1271 and NCI-H841; assay: Response of ATRX mutant SCLC lines; assay type: cell-based
Excerpt: FIGS. 8A-8C are three graphs establishing that ATRX mutant SCLC lines NCI-H446 (FIG. 8A), SW1271 (FIG. 8B) and NCI-H841 (FIG. 8C) are responding to Compound D.

[4] = test system: SNF5 mutant cell lines A204, G401 and G402; assay: Response of SNF5 mutant versus wild type cell lines; assay type: cell-based
[5] = test system: SCLC line NCI-H841; assay: Morphology of SCLC line by microscopy; assay type: cell-based; conditions: 4.1E-02 uM or 3.3 uM
[6] = test system: UPN737 ATRT cell line; assay: Surviving fraction after 2Gy radiation; assay type: cell-based
Excerpt: FIG. 25B is a pair of graphs showing a surviving fraction of untreated or DZNEP-treated ATRT cells (from a UPN737 ATRT cell line, “737”) exposed to 2Gy radiation.

[7] = test system: BT-16 ATRT cell line; assay: Surviving fraction after 2Gy radiation; assay type: cell-based
Excerpt: FIG. 25A is a pair of graphs showing a surviving fraction of untreated or DZNEP-treated ATRT cells (from a BT-16 ATRT cell line) exposed to 2Gy radiation.

[8] = test system: atypical teratoid rhabdoid tumors (ATRTs); assay: ATRT cell self-renewal; assay type: cell-based; conditions: up to 7 or 10 days post-treatment
Excerpt: FIG. 24A is a series of photographs showing control or EZH2 inhibitor-treated (DNZep-treated) atypical teratoid rhabdoid tumors (ATRTs) at 1, 3, 5, and 7 days post-treatment.
FIG. 24D is a series of photographs showing control or EZH2 inhibitor-treated (DNZep-treated) atypical teratoid rhabdoid tumors (ATRTs) at 3, 5, 8 and 10 days post-treatment.

[9] = test system: Medulloblastoma cells; assay: Medulloblastoma cell growth, total cells per milliliter counted; assay type: cell-based; conditions: versus DMSO control, counted each day for 10 days; tazemetostat 0.5, 2 and 6 μM
Excerpt: The total cells per milliliter of culture were counted each day for 10 days.

[10] = test system: SMARCB1-deleted MRT cells (G401); assay: Cell cycle analysis (flow cytometry) and apoptosis (TUNEL assay); assay type: cell-based; conditions: 1 μM, up to 14 days
Protocol: Cell cycle analysis (by flow cytometry) and determination of apoptosis (by TUNEL assay) in RD (FIG. 13A) or G401 cells (FIG. 13B) during incubation with either vehicle or 1 μM Compound A for up to 14 days. […] Data are represented as mean values±SEM (n=2). The DMSO control values shown are the average±SEM from each time point. Cells were split and re-plated on days 4, 7 and 11 at the original seeding density.

[11] = test system: ATRT; assay: ATRT in vivo, percent survival
[12] = test system: primary medulloblastoma cells; conditions: for primary medulloblastoma cell growth ex vivo: slice culture treated for 4 days
Protocol: A slice culture of medulloblastoma was freshly isolated from a subject.
A patient having medulloblastoma underwent surgery to remove a slice of tumor tissue for testing. The medulloblastoma slice was cultured ex vivo on tissue supporting inserts (FIG. 28A). […] Following the treatment period, the cells of the slice culture were treated with BrdU for 4 hours prior to disaggregation and sorting by flow cytometry.

[13] = test system: cellular H3K27Me3; assay: Cellular histone methylation in G401 and RD cells; assay type: cell-based
Protocol: FIGS. 10A-10C are a series of graphs showing effects of Compound A on cellular global histone methylation and cell viability.
(FIG. 12A) Cell lysates were analyzed by immunoblot with antibodies specific to SMARCB1, EZH2 and Actin (loading control). […] Cells were incubated with Compound A for 4 days, and acid-extracted histones were analyzed by immunoblot.

[14] = PBPK model (Gastroplus) prediction of adult steady-state PK; conditions: adults, 100-1600 mg BID
[15] = test system: G401 SNF5 mutant cell line; assay: CellTiter-Glo Luminescent Cell Viability Assay after 7 day pretreatment; assay type: cell-based; conditions: pretreated for 7 days, replated on day 0
Protocol: FIGS. 4A-4D are four graphs showing that G401 SNF5 mutant cell line is sensitive to Compound A in vitro. Wild type cell line SJCRH30 (FIG. 4A) and RD (FIG. 4C) and SNF5 mutant cell line G401 (FIG. 4B) and A204 (FIG. 4D) were pretreated for 7 days with indicated concentrations of Compound A and replated on day 0. Cell viability was determined by CellTiter-Glo® Luminescent Cell Viability Assay.

[16] = Oral bioavailability (general statement); conditions: in vivo
[17] = test system: G401 xenografts (malignant rhabdoid tumor model); assay: G401 xenograft tumor regression; assay type: in vivo, SCID mice; conditions: twice daily (BID) administration at the indicated doses; listed as Compound A
Protocol: Data represent the mean values±SEM (n=8). Compound administration was stopped on day 28. (FIG. 5C) EZH2 target inhibition in G401 xenograft tumor tissue collected from a parallel cohort of mice on day 21. […] Horizontal lines represent group mean values. BLLQ=below lower limit of quantification. (FIG. 5D, FIG. 5E) Immunohistochemical staining of tumor histone methylation of tumor samples from the vehicle treated (FIG. 5D) and Compound A treated (FIG. 5E) (at 125 mg/kg) mice.
Data are presented as mean values±SEM (n=16 until day 21, n=8 from day 22 to 60). […] (FIG. 15C) Tumor weights of 8 mice euthanized on day 21. ****p<0.0001, Fisher's exact test. (FIG. 15D) Plasma was collected 5 min before and 3 h after dosing of Compound A on day 21, and compound levels were measured by LC-MS/MS. Animals were euthanized, and tumors were collected 3 h after dosing on day 21. Tumor homogenates were generated and subjected to LC-MS/MS analysis to determine Compound A concentrations. Note that tumor compound levels could not be determined from all animals especially in the higher dose groups because the xenografts were too small on day 21. Dots represent values for the individual animals; horizontal lines represent group mean values.
Compound administration was stopped on day 28 and tumors were allowed to re-grow until they reached 2000 mm^3 (data shown as mean values±SEM, n=8). […]

[18] = test system: SMARCB1 regulated genes; assay: Gene expression by qPCR and cell morphology; assay type: cell-based; conditions: 1 μM; 2, 4 and 7 days (G401, RD); 14 days (G402)
Protocol: (FIG. 14A) Basal expression of SMARCB1 regulated genes in G401 SMARCB1-deleted cells, relative to RD control cells (measured by qPCR, n=2). (FIGS. 14B-14L) G401 and RD cells were incubated with either DMSO or 1 μM Compound A for 2, 4 and 7 days. Gene expression was determined by qPCR (n=2) and is expressed relative to the DMSO control of each time point. FIGS. 14B-14K correspond to genes GLI1, PTCh1, DOCK4, CD133, PTPRK, BIN1, CDKN1A, CDKN2A, EZH2, and MYC, respectively. (FIG. 14L) G402 cells were incubated with either DMSO (left panel) or 1 μM Compound A (right panel) for 14 days. Cells were split and re-plated to the original seeding density on day 7.

[19] = Phase 1 clinical trial, observed steady-state PK in adults; conditions: for CL/F Observed: adults, steady-state; for AUC(0-t) / Cmax: human, in vivo, po
[20] = 500 nM or 2 μM for 4 days, versus untreated control

SMILES: CCN(c1cc(-c2ccc(CN3CCOCC3)cc2)cc(C(=O)NCc2c(C)cc(C)[nH]c2=O)c1C)[C@H]1CC[C@H](N(C)C)CC1 [Compound D]
- cell growth inhibition [1]: dose-dependent cell growth inhibition
- response in soft agar compared to wild type cells RD [2]: responding
- response of ATRX mutant SCLC lines [3]: responding
- response of SNF5 mutant cell lines compared to wild type cell lines RD and SJCRH30 [4]: selectively respond
- cell morphology [5]: changes morphology

SMILES: Nc1nccc2c1ncn2C1C=C(CO)C(O)C1O (centres unmarked) [DNZep]
- radio-sensitization (surviving fraction) [6]: radio-sensitizes ATRT
- radio-sensitization (surviving fraction) [7]: radio-sensitizes ATRT
- ATRT cell self-renewal [8]: suppresses ATRT cell self-renewal

SMILES: CC[C@H](C)n1cc(C)c2c(C(=O)NCc3c(C)cc(C)[nH]c3=O)cc(-c3ccc(N4CCNCC4)nc3)cc21 [GSK-126, reference compound]
- medulloblastoma cell growth (total cells per milliliter) [9]: decrease medulloblastoma cell growth

SMILES: CCCc1cc(C)[nH]c(=O)c1CNC(=O)c1cc(-c2ccc(N3CCN(C(C)C)CC3)nc2)cc2c1cnn2C(C)C [UNC 1999, reference compound]
- medulloblastoma cell growth (total cells per milliliter) [9]: decrease medulloblastoma cell growth

- deviation of predicted mean steady-state AUC0-t from observed [14]: ≤ 30%
- deviation of predicted oral clearance (CL/F) from observed [14]: ≤ 30%
- oral bioavailability [16]: orally bioavailable
- CL/F Observed ([19]; 100 mg BID p.o. (n = 6)): 309 L/h
- CL/F Observed ([19]; 200 mg BID p.o. (n = 3)): 198 L/h
- CL/F Observed ([19]; 400 mg BID p.o. (n = 3)): 264 L/h
- CL/F Observed ([19]; 800 mg BID p.o. (n = 6)): 152 L/h
- CL/F Observed ([19]; 1600 mg BID p.o. (n = 6)): 180 L/h
- AUC(0-t) ([19]; 100 mg): 348 ng·h/mL
- Cmax ([19]; 100 mg): 99 ng/mL
- AUC(0-t) ([19]; 200 mg): 1010 ng·h/mL
- Cmax ([19]; 200 mg): 237 ng/mL
- AUC(0-t) ([19]; 400 mg): 1510 ng·h/mL
- Cmax ([19]; 400 mg): 313 ng/mL
- AUC(0-t) ([19]; 800 mg): 4630 ng·h/mL
- Cmax ([19]; 800 mg): 818 ng/mL
- AUC(0-t) ([19]; 1600 mg): 7880 ng·h/mL
- Cmax ([19]; 1600 mg): 1480 ng/mL
SMILES: CCN(c1cc(-c2ccc(CN3CCOCC3)cc2)cc(C(=O)NCc2c(C)cc(C)[nH]c2=O)c1C)C1CCOCC1 [tazemetostat]
- G1 arrest [10]: G1 arrest was observed as of day 7
- apoptosis ([10]; TUNEL): apoptosis was induced as of day 11
- ATRT in vivo (percent survival versus vehicle) [11]: decreases ATRT in vivo
- proportion of cells in G0/G1 stage [12, 20]: increased proportion
- proportion of cells in G2/M stage [12, 20]: decreased proportion
- primary medulloblastoma cell growth ex vivo [12]: inhibits proliferation/growth of medulloblastoma cells
- primary medulloblastoma cell growth ex vivo ([12]; listed as Tazemetostat): decreases primary medulloblastoma cell growth ex vivo
- cellular H3K27Me3 levels [13]: Concentration-dependent inhibition
- specificity for inhibition of cellular histone methylation ([13]; 4 days, immunoblot): Selective inhibition of cellular H3K27 methylation
- medulloblastoma cell growth (total cells per milliliter) [9]: significant decrease; also recorded: decrease medulloblastoma cell growth
- sensitivity of cell viability in vitro [15]: sensitive
- tumor response in G401 xenografts [17]: durable regressions; also recorded: Tumor regressions; also recorded: eradicates SMARCB1-deleted MRT xenografts
- expression of SMARCB1 regulated genes and cell morphology [18]: induces changes in expression of SMARCB1 regulated genes and cell morphology
